Laboratory results published in the kinase profiling compilation of Christmann-Franck et al. (2016).

Experiments:
Settings in all cases: compound 10.0 µM
[1] = molecular target: PAK3 (human) (UniProt O75914)
[2] = molecular target: RPS6KA5 KD1 (human) (UniProt O75582)
[3] = molecular target: MAP2K6 (human) (UniProt P52564)
[4] = molecular target: PRPF4B (human) (UniProt Q13523)
[5] = molecular target: MAP3K9 (human) (UniProt P80192)
[6] = molecular target: MAP2K7 (human) (UniProt O14733)
[7] = molecular target: SIK3 (human) (UniProt Q9Y2K2)
[8] = molecular target: DYRK2 (human) (UniProt Q92630)
[9] = molecular target: CDKL1 (human) (UniProt Q00532)
[10] = molecular target: EPHB3 (human) (UniProt P54753)
[11] = molecular target: LATS1 (human) (UniProt O95835)
[12] = molecular target: ROS1 (human) (UniProt P08922)
[13] = molecular target: BLK (human) (UniProt P51451)
[14] = molecular target: ERBB2 (human) (UniProt P04626)
[15] = molecular target: SYK (human) (UniProt P43405)
[16] = molecular target: MYLK2 (human) (UniProt Q9H1R3)
[17] = molecular target: RIPK2 (human) (UniProt O43353)
[18] = molecular target: CDKL2 (human) (UniProt Q92772)
[19] = molecular target: PIK3C2G (human) (UniProt O75747)
[20] = molecular target: DYRK1A (human) (UniProt Q13627)
[21] = molecular target: IRAK3 (human) (UniProt Q9Y616)
[22] = molecular target: CHEK1 (human) (UniProt O14757)
[23] = molecular target: HIPK3 (human) (UniProt Q9H422)
[24] = molecular target: PKN1 (human) (UniProt Q16512)
[25] = molecular target: STK24 (human) (UniProt Q9Y6E0)
[26] = molecular target: CDC42BPB (human) (UniProt Q9Y5S2)
[27] = molecular target: CDK2 (human) (UniProt P24941)
[28] = molecular target: CDK4 CCND1 (human) (UniProt P11802+P24385)
[29] = molecular target: CSNK1G1 (human) (UniProt Q9HCP0)
[30] = molecular target: NEK9 (human) (UniProt Q8TD19)
[31] = molecular target: NIM1 (human) (UniProt Q8IY84)
[32] = molecular target: LATS2 (human) (UniProt Q9NRM7)
[33] = molecular target: PRKACB (human) (UniProt P22694)
[34] = molecular target: MST1R (human) (UniProt Q04912)
[35] = molecular target: CDK17 (human) (UniProt Q00537)
[36] = molecular target: STK35 (human) (UniProt Q8TDR2)
[37] = molecular target: ERBB3 (human) (UniProt P21860)
[38] = molecular target: GSK3A (human) (UniProt P49840)
[39] = molecular target: GRK4 (human) (UniProt P32298)
[40] = molecular target: SLK (human) (UniProt Q9H2G2)
[41] = molecular target: PIK3C2B (human) (UniProt O00750)
PIK3C2B (human), sequence (O00750 whole entry, looked up): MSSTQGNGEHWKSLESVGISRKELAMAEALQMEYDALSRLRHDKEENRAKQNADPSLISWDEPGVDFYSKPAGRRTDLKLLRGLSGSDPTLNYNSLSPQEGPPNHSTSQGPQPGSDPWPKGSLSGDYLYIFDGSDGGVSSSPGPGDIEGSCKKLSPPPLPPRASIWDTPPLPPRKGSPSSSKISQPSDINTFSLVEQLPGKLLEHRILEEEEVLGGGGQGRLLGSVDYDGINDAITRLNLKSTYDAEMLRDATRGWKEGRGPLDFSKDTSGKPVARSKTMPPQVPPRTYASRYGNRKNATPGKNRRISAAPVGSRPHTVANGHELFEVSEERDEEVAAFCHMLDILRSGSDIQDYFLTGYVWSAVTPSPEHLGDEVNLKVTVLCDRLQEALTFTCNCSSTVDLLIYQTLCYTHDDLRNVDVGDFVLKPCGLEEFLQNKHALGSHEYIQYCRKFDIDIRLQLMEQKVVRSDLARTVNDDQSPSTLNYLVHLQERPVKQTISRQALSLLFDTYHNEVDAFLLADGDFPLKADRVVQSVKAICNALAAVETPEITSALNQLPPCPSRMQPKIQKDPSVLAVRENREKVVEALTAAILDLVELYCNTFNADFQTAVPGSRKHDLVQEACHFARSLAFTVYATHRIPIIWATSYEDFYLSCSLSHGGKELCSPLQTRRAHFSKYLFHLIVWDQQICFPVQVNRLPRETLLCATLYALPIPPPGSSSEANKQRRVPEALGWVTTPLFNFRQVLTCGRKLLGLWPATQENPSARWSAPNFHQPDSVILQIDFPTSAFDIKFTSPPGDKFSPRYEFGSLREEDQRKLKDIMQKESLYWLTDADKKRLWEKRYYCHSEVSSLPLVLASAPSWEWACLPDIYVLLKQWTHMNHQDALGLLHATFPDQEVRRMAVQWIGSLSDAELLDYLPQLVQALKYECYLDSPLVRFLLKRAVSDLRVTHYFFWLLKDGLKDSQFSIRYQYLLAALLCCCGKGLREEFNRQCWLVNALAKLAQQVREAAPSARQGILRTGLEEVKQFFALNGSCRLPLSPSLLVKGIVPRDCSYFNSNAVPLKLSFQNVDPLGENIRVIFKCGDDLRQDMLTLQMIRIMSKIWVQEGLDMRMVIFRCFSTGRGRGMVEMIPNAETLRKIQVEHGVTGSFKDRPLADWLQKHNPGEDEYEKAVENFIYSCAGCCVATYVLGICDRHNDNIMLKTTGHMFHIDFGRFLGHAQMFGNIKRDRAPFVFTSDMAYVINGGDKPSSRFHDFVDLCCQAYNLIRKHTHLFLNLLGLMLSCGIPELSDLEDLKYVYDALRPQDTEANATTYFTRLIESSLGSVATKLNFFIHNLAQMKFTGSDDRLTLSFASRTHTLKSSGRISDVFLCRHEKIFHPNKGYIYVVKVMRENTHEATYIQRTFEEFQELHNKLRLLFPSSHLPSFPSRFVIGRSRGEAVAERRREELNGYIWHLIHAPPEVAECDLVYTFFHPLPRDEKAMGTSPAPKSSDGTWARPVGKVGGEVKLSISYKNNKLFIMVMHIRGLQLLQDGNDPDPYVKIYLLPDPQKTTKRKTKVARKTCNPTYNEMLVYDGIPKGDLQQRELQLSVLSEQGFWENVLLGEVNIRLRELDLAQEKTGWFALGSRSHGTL

CSNK1G1 (human), sequence (Q9HCP0 whole entry, looked up): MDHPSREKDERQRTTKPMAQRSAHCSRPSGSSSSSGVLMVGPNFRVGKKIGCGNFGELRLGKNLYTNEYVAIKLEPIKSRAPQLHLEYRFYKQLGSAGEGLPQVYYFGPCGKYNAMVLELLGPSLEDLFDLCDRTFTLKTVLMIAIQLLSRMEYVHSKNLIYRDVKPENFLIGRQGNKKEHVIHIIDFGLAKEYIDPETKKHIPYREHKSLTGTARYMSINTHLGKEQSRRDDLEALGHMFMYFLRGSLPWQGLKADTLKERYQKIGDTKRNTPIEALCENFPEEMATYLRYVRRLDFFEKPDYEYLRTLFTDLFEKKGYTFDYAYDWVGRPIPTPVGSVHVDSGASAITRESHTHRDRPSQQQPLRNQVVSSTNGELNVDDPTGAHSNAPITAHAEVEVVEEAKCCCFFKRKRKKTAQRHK
CDKL1 (human), sequence (Q00532 whole entry, looked up): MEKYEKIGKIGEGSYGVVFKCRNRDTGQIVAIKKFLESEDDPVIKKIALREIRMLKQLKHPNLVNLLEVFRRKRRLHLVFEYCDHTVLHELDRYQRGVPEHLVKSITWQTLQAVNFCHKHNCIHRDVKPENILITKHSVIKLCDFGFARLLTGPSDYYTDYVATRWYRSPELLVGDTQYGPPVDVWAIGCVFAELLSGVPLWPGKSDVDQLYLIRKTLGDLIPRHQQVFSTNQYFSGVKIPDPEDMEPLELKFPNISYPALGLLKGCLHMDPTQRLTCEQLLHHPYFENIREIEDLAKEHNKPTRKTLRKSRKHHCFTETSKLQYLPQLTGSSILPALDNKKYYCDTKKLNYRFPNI
GSK3A (human), sequence (P49840 whole entry, looked up): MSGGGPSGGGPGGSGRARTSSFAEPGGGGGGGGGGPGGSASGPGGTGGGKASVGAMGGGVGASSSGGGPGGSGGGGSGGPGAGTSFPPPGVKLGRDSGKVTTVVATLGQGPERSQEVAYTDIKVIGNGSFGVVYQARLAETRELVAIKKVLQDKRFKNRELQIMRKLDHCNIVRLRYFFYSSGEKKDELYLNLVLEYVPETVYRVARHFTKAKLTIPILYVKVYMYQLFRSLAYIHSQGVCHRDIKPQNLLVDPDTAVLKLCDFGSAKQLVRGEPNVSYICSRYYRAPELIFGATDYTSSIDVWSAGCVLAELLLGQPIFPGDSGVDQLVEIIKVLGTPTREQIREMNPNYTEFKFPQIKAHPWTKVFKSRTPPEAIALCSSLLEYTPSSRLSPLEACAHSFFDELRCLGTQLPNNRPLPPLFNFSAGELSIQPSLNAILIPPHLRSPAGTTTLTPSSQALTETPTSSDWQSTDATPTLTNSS
BLK (human), sequence (P51451 whole entry, looked up): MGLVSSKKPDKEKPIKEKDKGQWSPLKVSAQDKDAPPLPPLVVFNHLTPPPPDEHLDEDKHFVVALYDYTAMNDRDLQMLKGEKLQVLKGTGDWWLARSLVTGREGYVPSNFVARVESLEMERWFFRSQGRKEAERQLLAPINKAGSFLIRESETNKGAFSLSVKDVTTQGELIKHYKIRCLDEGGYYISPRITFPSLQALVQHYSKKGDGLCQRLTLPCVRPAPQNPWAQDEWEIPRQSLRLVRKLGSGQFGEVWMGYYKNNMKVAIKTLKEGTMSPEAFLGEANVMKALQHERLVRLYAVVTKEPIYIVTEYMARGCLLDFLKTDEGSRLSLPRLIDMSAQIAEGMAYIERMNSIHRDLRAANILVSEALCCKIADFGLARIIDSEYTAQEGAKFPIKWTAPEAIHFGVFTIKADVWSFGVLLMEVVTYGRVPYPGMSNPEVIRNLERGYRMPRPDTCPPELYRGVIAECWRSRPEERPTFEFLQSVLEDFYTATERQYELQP
DYRK2 (human), sequence (Q92630 whole entry, looked up): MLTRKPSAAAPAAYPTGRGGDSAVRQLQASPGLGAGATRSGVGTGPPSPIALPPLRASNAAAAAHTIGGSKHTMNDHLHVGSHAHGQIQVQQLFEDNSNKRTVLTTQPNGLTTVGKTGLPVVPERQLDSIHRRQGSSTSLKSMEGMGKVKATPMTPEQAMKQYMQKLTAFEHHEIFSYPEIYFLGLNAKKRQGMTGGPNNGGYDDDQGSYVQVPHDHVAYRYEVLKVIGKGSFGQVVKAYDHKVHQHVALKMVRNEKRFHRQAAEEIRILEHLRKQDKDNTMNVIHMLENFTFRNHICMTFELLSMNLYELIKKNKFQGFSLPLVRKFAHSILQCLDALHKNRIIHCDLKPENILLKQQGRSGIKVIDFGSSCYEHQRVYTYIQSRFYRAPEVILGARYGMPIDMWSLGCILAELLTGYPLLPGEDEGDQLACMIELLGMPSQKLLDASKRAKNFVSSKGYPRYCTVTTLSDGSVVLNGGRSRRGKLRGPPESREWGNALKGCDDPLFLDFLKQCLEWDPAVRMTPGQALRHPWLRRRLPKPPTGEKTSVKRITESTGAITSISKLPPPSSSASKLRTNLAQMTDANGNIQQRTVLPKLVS
RIPK2 (human), sequence (O43353 whole entry, looked up): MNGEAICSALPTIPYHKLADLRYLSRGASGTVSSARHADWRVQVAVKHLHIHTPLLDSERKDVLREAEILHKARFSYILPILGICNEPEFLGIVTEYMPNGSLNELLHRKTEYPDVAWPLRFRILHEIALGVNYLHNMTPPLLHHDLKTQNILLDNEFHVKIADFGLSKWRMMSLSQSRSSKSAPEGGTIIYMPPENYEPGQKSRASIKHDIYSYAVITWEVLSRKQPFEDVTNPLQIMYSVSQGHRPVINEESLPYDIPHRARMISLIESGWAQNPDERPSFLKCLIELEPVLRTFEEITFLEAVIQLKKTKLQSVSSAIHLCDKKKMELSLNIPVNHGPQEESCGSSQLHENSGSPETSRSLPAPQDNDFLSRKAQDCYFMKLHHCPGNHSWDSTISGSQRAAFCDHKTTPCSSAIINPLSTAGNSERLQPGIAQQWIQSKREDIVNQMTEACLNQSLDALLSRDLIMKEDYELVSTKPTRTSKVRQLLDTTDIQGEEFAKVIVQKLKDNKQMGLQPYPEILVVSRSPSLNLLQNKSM
CHEK1 (human), sequence (O14757 whole entry, looked up): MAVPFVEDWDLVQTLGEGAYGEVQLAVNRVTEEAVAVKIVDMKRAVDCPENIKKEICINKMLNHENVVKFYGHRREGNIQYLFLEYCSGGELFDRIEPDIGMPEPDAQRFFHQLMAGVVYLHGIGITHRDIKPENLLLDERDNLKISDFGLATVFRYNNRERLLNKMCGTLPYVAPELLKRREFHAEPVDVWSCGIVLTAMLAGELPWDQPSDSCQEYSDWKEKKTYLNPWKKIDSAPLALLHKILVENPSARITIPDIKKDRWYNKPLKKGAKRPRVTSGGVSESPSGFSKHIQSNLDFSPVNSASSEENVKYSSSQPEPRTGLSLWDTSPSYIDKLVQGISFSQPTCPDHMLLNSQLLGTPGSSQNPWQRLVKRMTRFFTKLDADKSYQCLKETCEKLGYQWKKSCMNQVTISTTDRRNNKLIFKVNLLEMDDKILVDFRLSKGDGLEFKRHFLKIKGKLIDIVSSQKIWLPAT

## CNC(=O)c1cc(Oc2ccc(NC(=O)Nc3ccc(Cl)c(C(F)(F)F)c3)cc2)ccn1
[1]
  per cent of control: 56%
[2]
  per cent of control: 77%
[3]
  per cent of control: 73%
[4]
  per cent of control: 94%
[5]
  per cent of control: 100%
[6]
  per cent of control: 92%
[7]
  per cent of control: 100%
[8]
  per cent of control: 60%
[9]
  per cent of control: 75%
[10]
  per cent of control: 53%
[11]
  per cent of control: 79%
[12]
  per cent of control: 79%
[13]
  per cent of control: 28%
[14]
  per cent of control: 100%
[15]
  per cent of control: 77%
[16]
  per cent of control: 22%
[17]
  per cent of control: 5.3%
[18]
  per cent of control: 0.05%
[19]
  per cent of control: 100%
[20]
  per cent of control: 100%
[21]
  per cent of control: 76%
[22]
  per cent of control: 49%
[23]
  per cent of control: 1.2%
[24]
  per cent of control: 100%
[25]
  per cent of control: 81%
[26]
  per cent of control: 100%
[27]
  per cent of control: 15%
[28]
  per cent of control: 66%
[29]
  per cent of control: 100%
[30]
  per cent of control: 48%
[31]
  per cent of control: 100%
[32]
  per cent of control: 100%
[33]
  per cent of control: 100%
[34]
  per cent of control: 76%
[35]
  per cent of control: 13%
[36]
  per cent of control: 7.8%
[37]
  per cent of control: 70%
[38]
  per cent of control: 100%
[39]
  per cent of control: 99%
[40]
  per cent of control: 9.2%
[41]
  per cent of control: 100%

## CNC(=O)c1cc(Oc2ccc(NC(=O)Nc3ccc(Cl)c(C(F)(F)F)c3)cc2)cc[n+]1[O-]
[1]
  per cent of control: 43%
[2]
  per cent of control: 59%
[3]
  per cent of control: 55%
[4]
  per cent of control: 99%
[5]
  per cent of control: 100%
[6]
  per cent of control: 63%
[7]
  per cent of control: 100%
[8]
  per cent of control: 26%
[9]
  per cent of control: 45%
[10]
  per cent of control: 100%
[11]
  per cent of control: 53%
[12]
  per cent of control: 73%
[13]
  per cent of control: 11%
[14]
  per cent of control: 100%
[15]
  per cent of control: 89%
[16]
  per cent of control: 8.7%
[17]
  per cent of control: 9.8%
[18]
  per cent of control: 0.1%
[19]
  per cent of control: 100%
[20]
  per cent of control: 95%
[21]
  per cent of control: 91%
[22]
  per cent of control: 79%
[23]
  per cent of control: 5.1%
[24]
  per cent of control: 97%
[25]
  per cent of control: 14%
[26]
  per cent of control: 97%
[27]
  per cent of control: 1.8%
[28]
  per cent of control: 74%
[29]
  per cent of control: 96%
[30]
  per cent of control: 35%
[31]
  per cent of control: 100%
[32]
  per cent of control: 100%
[33]
  per cent of control: 98%
[34]
  per cent of control: 30%
[35]
  per cent of control: 7.7%
[36]
  per cent of control: 40%
[37]
  per cent of control: 62%
[38]
  per cent of control: 100%
[39]
  per cent of control: 100%
[40]
  per cent of control: 9.4%
[41]
  per cent of control: 100%
